BindingDB's records for doi:10.1016/j.bmc.2013.02.042 (The City University of New York, 2013)

Molecular target: Sphingosine kinase 1 (Homo sapiens, UniProt Q9NYA1)
Assay: Competitive inhibition of SK1 (unknown origin) in presence of ATP

Sphingosine kinase 1, sequence (Q9NYA1 whole entry): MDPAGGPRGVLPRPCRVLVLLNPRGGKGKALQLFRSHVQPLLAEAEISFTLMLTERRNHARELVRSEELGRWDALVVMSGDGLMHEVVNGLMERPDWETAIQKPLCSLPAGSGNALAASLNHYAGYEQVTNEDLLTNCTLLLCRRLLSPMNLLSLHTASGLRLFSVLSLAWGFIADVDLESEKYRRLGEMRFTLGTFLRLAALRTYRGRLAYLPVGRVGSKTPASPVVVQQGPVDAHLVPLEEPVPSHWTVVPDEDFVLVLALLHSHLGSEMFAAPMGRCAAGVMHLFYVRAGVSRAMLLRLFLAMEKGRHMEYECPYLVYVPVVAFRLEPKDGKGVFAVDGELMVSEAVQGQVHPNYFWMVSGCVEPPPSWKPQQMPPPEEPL

Ki: 10 µM
Structure (SMILES): CCCCCCCCc1ccc(CC[C@](N)(/C=C/P(=O)(O)O)CO)cc1
